The record followed here is patent US9216991B2 (Ares Trading S.A., priority 2012, dated 2015).

pIC50: −log10 of the molar value. A value given as a limit tells only on which side of the number the result lay.

The target in the test is T1, IRAK4 (Homo sapiens, UniProt Q9NWZ3).
T1 construct: His (N); TEV cleavage site (N)
T1 sequence (Q9NWZ3 1-460): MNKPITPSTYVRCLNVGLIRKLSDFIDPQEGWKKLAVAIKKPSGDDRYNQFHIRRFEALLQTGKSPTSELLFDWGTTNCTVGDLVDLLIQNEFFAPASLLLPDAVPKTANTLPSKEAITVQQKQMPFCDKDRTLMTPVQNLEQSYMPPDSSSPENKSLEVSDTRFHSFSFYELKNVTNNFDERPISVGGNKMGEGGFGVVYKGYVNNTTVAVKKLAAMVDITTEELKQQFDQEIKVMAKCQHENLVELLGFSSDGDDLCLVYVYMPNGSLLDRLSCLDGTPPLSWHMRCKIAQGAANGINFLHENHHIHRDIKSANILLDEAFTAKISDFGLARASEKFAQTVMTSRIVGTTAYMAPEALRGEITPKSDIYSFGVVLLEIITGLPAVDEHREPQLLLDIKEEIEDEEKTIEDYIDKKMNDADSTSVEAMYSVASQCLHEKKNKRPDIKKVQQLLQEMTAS
Kind of test: IRAK4 Enzymatic Assay. Particulars: His-TEV-IRAK4 20 ng/well, ATP 2 μM, STK1-biotin peptide 300 nM, 3 hours at 30° C., FlashPlate radioactivity. It is filed as biochemical. The gist of the method: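 Radiometric FlashPlate readout: biotin-STK1 substrate (300 nM) captured on streptavidin after EDTA stop and washes. Reaction used His-TEV-IRAK4 (20 ng/well), 2 μM [^33P]-spiked ATP and compound (1 nM-20 μM), incubated 3 h at 30 °C in 50 mM HEPES pH 7.0, 10 mM MgCl2, 5 mM MnCl2, 2 mM DTT.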
As for `Cn1cc(-c2cccc(-c3ncc(-c4cnn([C@H]5CC[C@H](C(=O)NC6CC6)CC5)c4)cn3)c2)cn1` [Example 170, Trans-4-(4-{2-[3-(1-Methyl-1H-pyrazol-4-yl)-phenyl]-pyrimidin-5-yl}-pyrazol-1-yl)-cyclohexanecarboxylic acid cyclopropylamide], the negative-log IC50 (pIC50) is > 7.00. As to `CN(C)CCNC(=O)[C@H]1CC[C@H](n2cc(-c3cnc(-c4cccc(-c5cnn(C)c5)c4)nc3)cn2)CC1` [Example 171, 4-(4-{2-[3-(1-Methyl-1H-pyrazol-4-yl)-phenyl]-pyrimidin-5-yl}-pyrazol-1-yl)-cyclohexanecarboxylic acid (2-dimethylamino-ethyl)-amide], the pIC50 was > 7.00. For `Cn1cc(-c2cccc(-c3ncc(-c4cnn(C5CCCNCC5)c4)cn3)c2)cn1` (stereo not drawn) [Example 172, 4-(4-{2-[3-(1-Methyl-1H-pyrazol-4-yl)-phenyl]-pyrimidin-5-yl}-pyrazol-1-yl)-azepane], the negative logarithm of the IC50 (pIC50) was > 7.00. Turning to `CC(C)CNC(=O)[C@H]1CC[C@H](n2cc(-c3cnc(-c4cccc(-c5cnn(C)c5)c4)nc3)cn2)CC1` [Example 173, Trans-4-(4-{2-[3-(1-Methyl-1H-pyrazol-4-yl)-phenyl]-pyrimidin-5-yl}-pyrazol-1-yl)-cyclohexanecarboxylic acid isobutyl-amide], the pIC50 is > 7.00.

As to `CC(C)NC(=O)[C@H]1CC[C@H](n2cc(-c3cnc(-c4cccc(-c5cnn(C)c5)c4)nc3)cn2)CC1` [Example 174, 4-(4-{2-[3-(1-Methyl-1H-pyrazol-4-yl)-phenyl]-pyrimidin-5-yl}-pyrazol-1-yl)-cyclohexanecarboxylic acid isopropylamide], the negative logarithm of the IC50 (pIC50) is 6.00 to 7.00.

Take `Cn1cc(-c2cccc(-c3ncc(-c4cnn(C5CCN(c6ccccc6F)CC5)c4)cn3)c2)cn1` [Example 175, 5-{1-[1-(2-Fluoro-phenyl)-piperidin-4-yl]-1H-pyrazol-4-yl}-2-[3-(1-methyl-1H-pyrazol-4-yl)-phenyl]-pyrimidine]: the negative-log IC50 (pIC50) was 6.00 to 7.00. With `Cn1cc(-c2cccc(-c3ncc(-c4cnn(C5CCS(=O)(=O)CC5)c4)cn3)c2)cn1` [Example 176, 5-[1-(1,1-Dioxo-hexahydro-1l6-thiopyran-4-yl)-1H-pyrazol-4-yl]-2-[3-(1-methyl-1H-pyrazol-4-yl)-phenyl]-pyrimidine] the figure was 6.00 to 7.00; with `Cn1cc(-c2cccc(-c3ncc(-c4cnn(C5CCCS(=O)(=O)C5)c4)cn3)c2)cn1` (stereo not drawn) [Example 177, 5-[1-(1,1-Dioxo-hexahydro-1l6-thiopyran-3-yl)-1H-pyrazol-4-yl]-2-[3-(1-methyl-1H-pyrazol-4-yl)-phenyl]-pyrimidin], > 7.00. As for `COCC(C)NC(=O)[C@H]1CC[C@H](n2cc(-c3cnc(-c4cccc(-c5cnn(C)c5)c4)nc3)cn2)CC1` (stereo partly drawn) [Example 178, 4-(4-{2-[3-(1-Methyl-1H-pyrazol-4-yl)-phenyl]-pyrimidin-5-yl}-pyrazol-1-yl)-cyclohexanecarboxylic acid (2-methoxy-1-methyl-ethyl)-amide], the pIC50 is > 7.00.

On to `Cn1cc(-c2cccc(-c3ncc(-c4cnn(C5CC6COCC(C5)N6)c4)cn3)c2)cn1` (stereo not drawn) [Example 179, 7-(4-{2-[3-(1-Methyl-1H-pyrazol-4-yl)-phenyl]-pyrimidin-5-yl}-pyrazol-1-yl)-3-oxa-9-aza-bicyclo[3.3.1]nonane], for which the negative-log IC50 (pIC50) was > 7.00. Regarding `Cn1cc(-c2cccc(-c3ncc(-c4cnn([C@H]5CC[C@H](O)CC5)c4)cn3)c2)cn1` [Example 182, Trans-4-(4-{2-[3-(1-Methyl-1H-pyrazol-4-yl)-phenyl]-pyrimidin-5-yl}-pyrazol-1-yl)-cyclohexanol], the pIC50 is > 7.00.

With `Cn1cc(-c2cccc(-c3ncc(-c4cnn([C@@H]5CCCNC5)c4)cn3)c2)cn1` [Example 183, 2-[3-(1-Methyl-1H-pyrazol-4-yl)-phenyl]-5-((R)-1-piperidin-3-yl-1H-pyrazol-4-yl)-pyrimidine], the pIC50 was 6.00 to 7.00. On to `Cn1cc(-c2cccc(-c3ncc(-c4cnn([C@H]5CC[C@H](C(=O)NCCO)CC5)c4)cn3)c2)cn1` [Example 184, trans-4-(4-{2-[3-(1-Methyl-1H-pyrazol-4-yl)-phenyl]-pyrimidin-5-yl}-pyrazol-1-yl)-cyclohexanecarboxylic acid (2-hydroxy-ethyl)-amide], for which the pIC50 is > 7.00. The result for `CN(CCO)C(=O)[C@H]1CC[C@H](n2cc(-c3cnc(-c4cccc(-c5cnn(C)c5)c4)nc3)cn2)CC1` [Example 185, trans-4-(4-{2-[3-(1-Methyl-1H-pyrazol-4-yl)-phenyl]-pyrimidin-5-yl}-pyrazol-1-yl)-cyclohexanecarboxylic acid (2-hydroxy-ethyl)-methyl-amide] reads > 7.00; that for `Cn1cc(-c2cccc(-c3ncc(-c4cnn([C@H]5CC[C@H](C(=O)N6CC[C@@H](O)C6)CC5)c4)cn3)c2)cn1` [Example 186, ((R)-3-Hydroxy-pyrrolidin-1-yl)-[4-(4-{2-[3-(1-methyl-1H-pyrazol-4-yl)-phenyl]-pyrimidin-5-yl}-pyrazol-1-yl)-cyclohexyl]-methanone], > 7.00; that for `Cc1cc(-c2cccc(-c3ncc(-c4cnn([C@H]5CC[C@H](C(=O)N(C)C)CC5)c4)cn3)c2)cnn1` [Example 187, trans-4-(4-{2-[3-(6-Methyl-pyridazin-4-yl)-phenyl]-pyrimidin-5-yl}-pyrazol-1-yl)-cyclohexanecarboxylic acid dimethylamide], > 7.00. The result for `CC(CO)NC(=O)[C@H]1CC[C@H](n2cc(-c3cnc(-c4cccc(-c5cnn(C)c5)c4)nc3)cn2)CC1` (stereo partly drawn) [Example 188, trans-4-(4-{2-[3-(1-Methyl-1H-pyrazol-4-yl)-phenyl]-pyrimidin-5-yl}-pyrazol-1-yl)-cyclohexanecarboxylic acid (2-hydroxy-1-methyl-ethyl)-amide] reads 6.00 to 7.00. For the compound `Cn1cc(-c2cccc(-c3ncc(-c4cnn(C5CCC(=O)CC5)c4)cn3)c2)cn1` [Example 189, 4-(4-{2-[3-(1-Methyl-1H-pyrazol-4-yl)-phenyl]-pyrimidin-5-yl}-pyrazol-1-yl)-cyclohexanone], the negative logarithm of the IC50 (pIC50) was 6.00 to 7.00. As to `Cn1cc(-c2cccc(-c3ncc(-c4cnn([C@H]5CC[C@H](C(=O)NCCCO)CC5)c4)cn3)c2)cn1` [Example 190, Trans-4-(4-{2-[3-(1-Methyl-1H-pyrazol-4-yl)-phenyl]-pyrimidin-5-yl}-pyrazol-1-yl)-cyclohexanecarboxylic acid (3-hydroxy-propyl)-amide], the pIC50 was > 7.00. In the case of `CO[C@H]1CCN(C(=O)[C@H]2CC[C@H](n3cc(-c4cnc(-c5cccc(-c6cnn(C)c6)c5)nc4)cn3)CC2)C1` [Example 191, Trans-((S)-3-Methoxy-pyrrolidin-1-yl)-[4-(4-{2-[3-(1-methyl-1H-pyrazol-4-yl)-phenyl]-pyrimidin-5-yl}-pyrazol-1-yl)-cyclohexyl]-methanone], the pIC50 was > 7.00. Turning to `Cn1cc(-c2cccc(-c3ncc(-c4cnn([C@H]5CC[C@H](C(=O)NC(C)(C)C)CC5)c4)cn3)c2)cn1` [Example 192, Trans-4-(4-{2-[3-(1-Methyl-1H-pyrazol-4-yl)-phenyl]-pyrimidin-5-yl}-pyrazol-1-yl)-cyclohexanecarboxylic acid tert-butylamide], the pIC50 was > 7.00. The result for `CC(=O)N1[C@@H]2COC[C@H]1C[C@H](n1cc(-c3cnc(-c4cccc(-c5cnn(C)c5)c4)nc3)cn1)C2` [Example 193, exo-1-[7-(4-{2-[3-(1-Methyl-1H-pyrazol-4-yl)-phenyl]-pyrimidin-5-yl}-pyrazol-1-yl)-3-oxa-9-aza-bicyclo[3.3.1]non-9-yl]-ethanone] reads 6.00 to 7.00; that for `CN(C)C(=O)[C@H]1C[C@H]2COC[C@@H](C1)[C@@H]2n1cc(-c2cnc(-c3cccc(-c4cnn(C)c4)c3)nc2)cn1` [Example 194, cis-cis-9-(4-{2-[3-(1-Methyl-1H-pyrazol-4-yl)-phenyl]-pyrimidin-5-yl}-pyrazol-1-yl)-3-oxa-bicyclo[3.3.1]nonane-7-carboxylic acid dimethylamide], 5.30 to 6.00. With `Cn1cc(-c2cccc(-c3ncc(-c4cnn(C5CCCC(=O)C5)c4)cn3)c2)cn1` (stereo not drawn) [Example 195, 3-(4-{2-[3-(1-Methyl-1H-pyrazol-4-yl)-phenyl]-pyrimidin-5-yl}-pyrazol-1-yl)-cyclohexanone] the figure was 6.00 to 7.00; with `Cn1cc(-c2cccc(-c3ncc(-c4cnn([C@H]5CC[C@@H](O)CC5)c4)cn3)c2)cn1` [Example 196, Cis-4-(4-{2-[3-(1-Methyl-1H-pyrazol-4-yl)-phenyl]-pyrimidin-5-yl}-pyrazol-1-yl)-cyclohexanol], 6.00 to 7.00. With `CCNC(=O)[C@H]1CC[C@H](n2cc(-c3cnc(-c4cccc(-c5cnn(C)c5)c4)nc3)cn2)CC1` [Example 197, Trans-4-(4-{2-[3-(1-Methyl-1H-pyrazol-4-yl)-phenyl]-pyrimidin-5-yl}-pyrazol-1-yl)-cyclohexanecarboxylic acid ethylamide] the figure was > 7.00; with `C[C@@H](CO)NC(=O)[C@H]1CC[C@H](n2cc(-c3cnc(-c4cccc(-c5cnn(C)c5)c4)nc3)cn2)CC1` [Example 198, Trans-4-(4-{2-[3-(1-Methyl-1H-pyrazol-4-yl)-phenyl]-pyrimidin-5-yl}-pyrazol-1-yl)-cyclohexanecarboxylic acid ((S)-2-hydroxy-1-methyl-ethyl)-amide], > 7.00.
